From patent publication US9907312B2, “Compositions comprising a biological control agent and an insecticide” (priority 2012, dated 2018)

What was measured:
Assay type in all cases: in vivo
Spodoptera frugiperda = Spodoptera frugiperda spray test, cotton leaves; conditions: 0.8 ppm; mortality after 1 d
Protocol: (§1) For all examples the efficiencies of the compositions comprising at least one BCA and at least one specific insecticide has been determined by the “Colby-formula”: The expected efficacy of a given combination of two compounds is calculated as follows (see Colby, S. R., “Calculating Synergistic and antagonistic Responses of Herbicide Combinations”, Weeds 15, pp. 20-22, 1967):
(§2) If • X is the efficacy expressed in % mortality of the untreated control for test compound A at a concentration of m ppm respectively m g/ha, • Y is the efficacy expressed in % mortality of the untreated control for test compound B at a concentration of n ppm respectively n g/ha, • E is the efficacy expressed in % mortality of the untreated control using the mixture of A and B at m and n ppm respectively m and n g/ha, then is E=X+Y−(X×Y/100)
(§3) If the observed insecticidal efficacy of the combination is higher than the one calculated as “E”, then the combination of the two compounds is more than additive, i.e., there is a synergistic effect. […]
(§4) After the specified period of time, mortality in % is determined. […] The mortality values determined thus are recalculated using the Colby-formula (see above).

Myzus persicae = Myzus persicae spray test (MYZUPE), Chinese cabbage leaf-disks; conditions: mortality after 6 d
Protocol: as §1, §2
(§5) If the observed insecticidal efficacy of the combination is higher than the one calculated as “E”, then the combination of the two compounds is more than additive, i.e., there is a synergistic effect.
(§6) To produce a suitable preparation of active compound, 1 part by weight of active compound is mixed with the stated amount of solvent and emulsifier, and the concentrate is diluted with emulsifier-containing water to the desired concentration. To produce a suitable preparation of a spore suspension the spores are diluted with emulsifier-containing water to the desired concentration.
Chinese cabbage (Brassica pekinensis) leaf-disks infected with all instars of the green peach aphid (Myzus persicae), are sprayed with a preparation of the active ingredient of the desired concentration.
After the specified period of time, mortality in % is determined. 100% means all aphids have been killed; 0% means none of the aphids have been killed. The mortality values determined thus are recalculated using the Colby-formula (see above).

Phaedon cochleariae = Phaedon cochleariae spray test, Chinese cabbage leaf-disks; conditions: mortality after 6 d
Protocol: as §1, §2, §5, §6
Chinese cabbage (Brassica pekinensis) leaf-disks are sprayed with a preparation of the active ingredient of the desired concentration. Once dry, the leaf disks are infested with mustard beetle larvae (Phaedon cochleariae).
After the specified period of time, mortality in % is determined. 100% means all beetle larvae have been killed and 0% means none of the beetle larvae have been killed. The mortality values determined thus are recalculated using the Colby-formula (see above).

Nilaparvata lugens = Nilaparvata lugens spray test (NILALU), rice plants; conditions: 1 ppm; mortality after 3 d
Protocol: as §1, §2, §5
To produce a suitable preparation of active compound, 1 part by weight of active compound is mixed with the stated amount of solvent and emulsifier, and the concentrate is diluted with emulsifier-containing water to the desired concentration. […]
After the specified period of time, mortality in % is determined. […]

Tetranychus urticae = Tetranychus urticae spray test, OP-resistant, French beans; conditions: 0.032 g ai/ha; mortality after 2 d
Protocol: as §1, §2, §3, §4

CS/C(C)=N\OC(=O)N(C)SN(C)C(=O)O/N=C(\C)SC [Thiodicarb (I21), Thiodicarb]
Efficacy in % after 1d (Spodoptera frugiperda): 50%

CNC(=O)Oc1cc(C)c(SC)c(C)c1 [Methiocarb (I15), Methiocarb]
Efficacy in % after 6d (Myzus persicae; 500 g/ha): 0% | Efficacy in % after 6d (Phaedon cochleariae; 20 g ai/ha): 0%

N#Cc1nn(-c2c(Cl)cc(C(F)(F)F)cc2Cl)c(N)c1[S+]([O-])C(F)(F)F (stereo not drawn) [Fipronil (I95), Fipronil]
Efficacy in % after 6d (Myzus persicae; 4 g/ha): 0% | Efficacy in % after 6d (Myzus persicae; 100 g/ha): 0% | Efficacy in % after 6d (Phaedon cochleariae; 0.25 g ai/ha): 33% | Efficacy in % after 3d (Nilaparvata lugens): 0%

Abamectin [Abamectin (I152)]
Efficacy in % after 2d (Tetranychus urticae): 0% | Efficacy in % after 6d (Phaedon cochleariae; 0.8 g ai/ha): 0%
